This is an account of results in paper PMC6581923 (Journal of Molecular Neuroscience, 2018).

One experiment concerns the target T1, PAC1-R (Homo sapiens, UniProt P41586).
T1 construct: expressed in transfected cells; host or cells: PAC1-CHO cells (CHO cells expressing PAC1-R); That they are transfected is inferred from the cell line's name
T1 sequence (P41586 21-468): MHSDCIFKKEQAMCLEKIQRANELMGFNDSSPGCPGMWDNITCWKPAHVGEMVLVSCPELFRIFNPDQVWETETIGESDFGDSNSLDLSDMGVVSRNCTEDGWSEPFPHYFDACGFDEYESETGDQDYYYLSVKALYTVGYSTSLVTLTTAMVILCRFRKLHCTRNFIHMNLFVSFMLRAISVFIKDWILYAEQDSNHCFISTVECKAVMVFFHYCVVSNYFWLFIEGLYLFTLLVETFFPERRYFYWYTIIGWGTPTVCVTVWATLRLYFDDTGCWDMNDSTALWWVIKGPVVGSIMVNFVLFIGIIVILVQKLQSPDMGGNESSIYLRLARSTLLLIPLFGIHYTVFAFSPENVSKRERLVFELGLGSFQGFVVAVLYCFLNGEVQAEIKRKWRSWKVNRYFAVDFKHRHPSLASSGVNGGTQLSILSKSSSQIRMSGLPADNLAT
Put plainly: cAMP accumulation assay in PAC1-CHO cells. The following applies: DMEM, 37 °C, 5-10 min, enzyme immunoassay for cAMP, % of maximal cAMP level with PACAP27, means ± SEM of four experiments, read-out: EC50 (activation of PAC1-R, cAMP accumulation). The format is cell-based. How it is done:
PAC1-CHO cells cultured in Dulbecco’s Modified Eagle’s Medium (DMEM) at 37 °C were scraped off the surface with rubber policeman, washed twice with PBS and the density of the cells was adjusted to 2 × 10^6 /mL. Peptides were added to 500 uL cells suspension with the corresponding varying working concentrations of the detected factor. After incubation at 37 °C for 5-10 min cells were harvested and the lysates were subjected to cAMP quantification using the enzyme immunoassay kit for cAMP (Biyuntian, Shanghai, China), following the manufacturer’s instructions. Protein concentration of each sample was determined using BCA assay, and the cAMP level of each sample was calculated following the formula: cAMP level (pmol/mg protein) = cAMP concentration (pmol/mL)/protein concentration (mg/mL). The cAMP level in each sample was plotted as the percentage (%) of the maximal cAMP level in cells treated with PACAP27 versus the logarithmic value of the peptide concentrations. All experiments were run with at least four parallel samples and were repeated three times.
The data are means ± SEM of four experiments

The conditions of experiment [1]: ref Steingart et al. [2000]; cited from earlier work. The source says: VIP is an important neuromodulator along the visual transmission pathways, not only in the retina, but all the way to the cortex where it influences visual information processing (Galletti and Fattori [2018]; Wilson and Glickfeld [2014]). Regarding retinoprotection, a few studies i ...

For orientation: EC50 means the concentration giving half of the maximal effect.

As to `CC[C@H](C)[C@H](NC(=O)[C@H](CO)NC(=O)[C@H](CC(N)=O)NC(=O)[C@H](CC(C)C)NC(=O)[C@H](Cc1ccc(O)cc1)NC(=O)[C@H](CCCCN)NC(=O)[C@H](CCCCN)NC(=O)[C@@H](NC(=O)[C@H](C)NC(=O)[C@H](CCSC)NC(=O)[C@H](CCC(N)=O)NC(=O)[C@H](CCCCN)NC(=O)[C@H](CCCN=C(N)N)NC(=O)[C@H](CC(C)C)NC(=O)[C@H](CCCN=C(N)N)NC(=O)[C@@H](NC(=O)[C@H](Cc1ccc(O)cc1)NC(=O)[C@H](CC(N)=O)NC(=O)[C@H](CC(=O)O)NC(=O)[C@@H](NC(=O)[C@H](Cc1ccccc1)NC(=O)[C@@H](NC(=O)[C@H](C)NC(=O)[C@H](CC(=O)O)NC(=O)[C@H](CO)NC(=O)[C@@H](N)Cc1c[nH]cn1)C(C)C)[C@@H](C)O)[C@@H](C)O)C(C)C)C(=O)N[C@@H](CC(C)C)C(=O)N[C@@H](CC(N)=O)C(N)=O` [VIP, vasoactive intestinal peptide, reference compound], the EC50 on PAC1-R is 30.1 ± 4.1 nM.

B1: activity-dependent neurotrophic protein (protein, UniProt Q9H2P0 1-1102, looked up)
Activity-dependent …: MFQLPVNNLGSLRKARKTVKKILSDIGLEYCKEHIEDFKQFEPNDFYLKNTTWEDVGLWDPSLTKNQDYRTKPFCCSACPFSSKFFSAYKSHFRNVHSEDFENRILLNCPYCTFNADKKTLETHIKIFHAPNASAPSSSLSTFKDKNKNDGLKPKQADSVEQAVYYCKKCTYRDPLYEIVRKHIYREHFQHVAAPYIAKAGEKSLNGAVPLGSNAREESSIHCKRCLFMPKSYEALVQHVIEDHERIGYQVTAMIGHTNVVVPRSKPLMLIAPKPQDKKSMGLPPRIGSLASGNVRSLPSQQMVNRLSIPKPNLNSTGVNMMSSVHLQQNNYGVKSVGQGYSVGQSMRLGLGGNAPVSIPQQSQSVKQLLPSGNGRSYGLGSEQRSQAPARYSLQSANASSLSSGQLKSPSLSQSQASRVLGQSSSKPAAAATGPPPGNTSSTQKWKICTICNELFPENVYSVHFEKEHKAEKVPAVANYIMKIHNFTSKCLYCNRYLPTDTLLNHMLIHGLSCPYCRSTFNDVEKMAAHMRMVHIDEEMGPKTDSTLSFDLTLQQGSHTNIHLLVTTYNLRDAPAESVAYHAQNNPPVPPKPQPKVQEKADIPVKSSPQAAVPYKKDVGKTLCPLCFSILKGPISDALAHHLRERHQVIQTVHPVEKKLTYKCIHCLGVYTSNMTASTITLHLVHCRGVGKTQNGQDKTNAPSRLNQSPSLAPVKRTYEQMEFPLLKKRKLDDDSDSPSFFEEKPEEPVVLALDPKGHEDDSYEARKSFLTKYFNKQPYPTRREIEKLAASLWLWKSDIASHFSNKRKKCVRDCEKYKPGVLLGFNMKELNKVKHEMDFDAEWLFENHDEKDSRVNASKTADKKLNLGKEDDSSSDSFENLEEESNESGSPFDPVFEVEPKISNDNPEEHVLKVIPEDASESEEKLDQKEDGSKYETIHLTEEPTKLMHNASDSEVDQDDVVEWKDGASPSESGPGSQQVSDFEDNTCEMKPGTWSDESSQSEDARSSKPAAKKKATMQGDREQLKWKNSSYGKVEGFWSKDQSQWKNASENDERLSNPQIEWQNSTIDSEDGEQFDNMTDGVAEPMHGSLAGVKLSSQQA
For B1, the “Protection against a variety of stress factors” value in experiment [1] was “strong protection against a variety of stress factors”.
